Broadly, the solubility is the dissolved amount per volume that the medium holds.

18 compounds from US20140005417A1, “WATER-INSOLUBLE COLORING COMPOUND, INK, RESIST COMPOSITION FOR COLOR FILTER, AND THERMAL TRANSFER RECORDING SHEET” (CANON KABUSHIKI KAISHA, priority 2011, published 2014) can be followed below.

Data set [1] in a line: physchem. Conditions: organic solvent or mixture, thermodynamic from solid.
Excerpt: The solubility in each solvent was visually evaluated by the following criteria:
A: completely dissolved (the solubility is excellent),
B: slightly remaining suspended solids (the solubility is good), and
C: not dissolved at all (the solubility is poor).
A short description of data set [2]: Light resistance evaluation of ink image samples (exposure test). Conditions: ink image sample with L* closest to 60; Weather-Ometer exposure 36 hours, black panel 50° C., chamber 40° C., RH 70%, 340 nm 0.39 W/m^2; less than 10 = good.
Description: The measurement conditions were as follows:
Relative Humidity: 70%, and
Before and after the exposure test, chromaticity (L*, a*, and b*) in the L*a*b* color system of the sample was measured with a reflection densitometer SpectroLino (manufactured by Gretag Macbeth AG). The color difference (ΔE) was calculated from the measured values of color properties by the following expression:
Color difference (ΔE)=[{(a* before the test)−(a* after the test)}^2+{(b* before the test)−(b* after the test)}^2+{(L* before the test)−(L* after the test)}^2]^1/2
When the ΔE after 36 hours was less than 10, the light resistance was evaluated as good.
Data set [3] can be described thus: Solubility in water. It is filed as physicochemical. From the text: The water-insoluble coloring compound represented by Formula (1) of the present invention has a high affinity to an organic solvent. In the present invention, the term “water-insoluble” refers to that the solubility in water is less than 1% as mass percentage.

On to `CCN(CC)c1ccc2c(c1)Oc1cc(N(CC)CC)ccc1C21OC(=O)c2ccccc21` [(1)], for which the solubility in data set [1] (chloroform) is more than 42.9 mg/mL; in data set [1] (ethyl acetate), less than 42.9 mg/mL; in data set [1] (methanol), more than 42.9 mg/mL; in data set [1] (toluene) it was less than 42.9 mg/mL. For the same compound, the “ΔE (36 h)” value in data set [2] worked out at 15.8.

In the case of `Nc1c(Oc2ccccc2)cc(O)c2c1C(=O)c1ccccc1C2=O` [(2)], the solubility in data set [1] (chloroform), in data set [1] (ethyl acetate), in data set [1] (methanol) and in data set [1] (toluene) was less than 42.9 mg/mL each time. The “ΔE (36 h)” value in data set [2] is listed as 12.3.

With `Cc1ccc(/N=N/c2c(O)c(C(=O)O)cc3ccccc23)c(S(=O)(=O)O)c1` [(3)], the solubility in data set [1] (chloroform), in data set [1] (ethyl acetate), in data set [1] (methanol) and in data set [1] (toluene) was less than 42.9 mg/mL each time. For the same compound, in data set [2], the “ΔE (36 h)” value is reported as 1.5.

As to `CC(=O)Nc1c(C)c(N=c2ccc3c(-c4ccccc4S(=O)(=O)O)c4ccc(Nc5c(C)c(NC(C)=O)c(C)c(NC(C)=O)c5C)cc4oc-3c2)c(C)c(NC(C)=O)c1C` [(11)], the “ΔE (36 h)” value in data set [2] is recorded as 2.3.

On to `CCOC(=O)c1ccccc1C(=O)Nc1c(C)cc(C)c(N=c2ccc3c(-c4ccccc4S(=O)(=O)O)c4ccc(Nc5c(C)cc(C)c(NC(=O)c6ccccc6C(=O)OCC)c5C)cc4oc-3c2)c1C` [(12)], for which the “ΔE (36 h)” value in data set [2] is 3.5.

Regarding `CC(=O)Nc1c(C)cc(C)c(N=c2ccc3c(-c4ccccc4S(=O)(=O)O)c4ccc(Nc5c(C)c(NC(C)=O)c(C)c(NC(C)=O)c5C)cc4oc-3c2)c1C` [(13)], the “ΔE (36 h)” value in data set [2] is recorded as 3.1.

For the compound `CCc1ccc(NC(C)=O)c(CC)c1N=c1ccc2c(-c3ccccc3S(=O)(=O)O)c3ccc(Nc4c(CC)ccc(NC(C)=O)c4CC)cc3oc-2c1` [(14)], in data set [2], the “ΔE (36 h)” value is 5.2.

Regarding `CCc1ccc(NC(C)=O)c(CC)c1Nc1ccc2c(-c3ccccc3S(=O)(=O)O)c3ccc(=Nc4c(C)ccc(NC(C)=O)c4C)cc-3oc2c1` [(15)], in data set [2], the “ΔE (36 h)” value is 5.0.

In the case of `CC(=O)Nc1ccc(C)c(N=c2ccc3c(-c4ccccc4S(=O)(=O)O)c4ccc(Nc5c(C(C)C)ccc(NC(C)=O)c5C(C)C)cc4oc-3c2)c1C` [(16)], the “ΔE (36 h)” value in data set [2] was determined as 5.8.

Consider `CCOc1cc(C)c(N=c2ccc3c(-c4ccccc4S(=O)(=O)O)c4ccc(Nc5c(C)cc(OCC)c(NC(C)=O)c5C)cc4oc-3c2)c(C)c1NC(C)=O` [(18)], for which, in data set [2], the “ΔE (36 h)” value is 3.9.

Regarding `C=C(C)C(=O)Nc1c(C)cc(C)c(N=c2ccc3c(-c4ccccc4S(=O)(=O)O)c4ccc(Nc5c(C)cc(C)c(NC(=O)C(=C)C)c5C)cc4oc-3c2)c1C` [(21)], the “ΔE (36 h)” value in data set [2] is given as 7.8.

Turning to `Cc1cc(C)c(NC(=O)c2cccnc2)c(C)c1N=c1ccc2c(-c3ccccc3S(=O)(=O)O)c3ccc(Nc4c(C)cc(C)c(NC(=O)c5cccnc5)c4C)cc3oc-2c1` [(22)], in data set [2], the “ΔE (36 h)” value is 5.0.

With `CCCCCCCCCCCCCCCCCC(=O)Nc1c(C)cc(C)c(N=c2ccc3c(-c4ccccc4S(=O)(=O)O)c4ccc(Nc5c(C)cc(C)c(NC(=O)CCCCCCCCCCCCCCCCC)c5C)cc4oc-3c2)c1C` [(23)], the “ΔE (36 h)” value in data set [2] is listed as 3.8.

Take `CC(=O)Nc1c(C)cc(C)c(N=c2ccc3c(-c4ccccc4S(=O)(=O)O)c4ccc(Nc5c(C)cc(C)c(NC(C)=O)c5C)cc4oc-3c2)c1C` [Compound (5)]: in data set [2], the “ΔE (36 h)” value stood at 3.2. The solubility in water entry in data set [3] is “less than 1 % as mass percentage”.

In the case of `CCC(=O)Nc1c(C)cc(C)c(N=c2ccc3c(-c4ccccc4S(=O)(=O)O)c4ccc(Nc5c(C)cc(C)c(NC(=O)CC)c5C)cc4oc-3c2)c1C` [Compound (6)], in data set [2], the “ΔE (36 h)” value is 3.3.

Regarding `CCCC(=O)Nc1c(C)cc(C)c(N=c2ccc3c(-c4ccccc4S(=O)(=O)O)c4ccc(Nc5c(C)cc(C)c(NC(=O)CCC)c5C)cc4oc-3c2)c1C` [Compound (7)], the “ΔE (36 h)” value in data set [2] is reported as 3.2.

With `Cc1cc(C)c(NC(=O)C(C)C)c(C)c1N=c1ccc2c(-c3ccccc3S(=O)(=O)O)c3ccc(Nc4c(C)cc(C)c(NC(=O)C(C)C)c4C)cc3oc-2c1` [Compound (8)], the “ΔE (36 h)” value in data set [2] amounted to 2.9.

For the compound `Cc1cc(C)c(NC(=O)c2ccccc2)c(C)c1N=c1ccc2c(-c3ccccc3S(=O)(=O)O)c3ccc(Nc4c(C)cc(C)c(NC(=O)c5ccccc5)c4C)cc3oc-2c1` [Compound (10)], the “ΔE (36 h)” value in data set [2] is recorded as 3.8.
